Here are results for 4 molecules from patent US20170128480A1, “Cardiac Glycosides for the Treatment of Hypercholesterolemia” (priority 2015, published 2017).

One experiment has as its system human ApoB-100. Put plainly: Drug treatment of humanized FRGN avatar mice, serum human ApoB-100 and albumin by ELISA. Format: in vivo. To be noted: i.p., 48-hour period, Digoxin 0.5 mg/kg, Proscillaridin 0.6 mg/kg/day, p≦0.05. The procedure: Prior to any drug or vehicle treatment, the ratio of ApoB-100 to albumin is approximately 30% higher in the serum of avatars repopulated with hepatocytes from donor A compared to donor B (p=0.032) (FIG. 8A). Human ApoB-100 and albumin is then measured before and after treatment with DMSO (vehicle), Digoxin or Proscillaridin, over a 48-hour period of time (FIG. 8C). […] The concentration of human albumin is unaffected in the serum of the same animals (FIG. 8B).
A sandwich ELISA to detect human albumin in tissue culture supernatants and mouse sera uses a 1:100 dilution of a capture human albumin coating antibody (Bethyl laboratories, A80-129A) and a 1:85,000 dilution of a Horseradish Peroxidase (HRP) conjugated human albumin detection antibody (Bethyl laboratories, A80-129P). Bound antibody is detected using 3,3′,5,5′-tetramethylbenzidine (TMB) and the concentration of albumin in each sample is determined by comparing to a standard curve (Bethyl laboratories, RS10-110). Human lipidated apoB-100 is detected using a commercial sandwich ELISA (product code: 3715-1H-6; MabTech, Inc.) and detected using TMB. The concentration of apoB-100 is determined by comparing to a standard curve using lipidated apoB-100 supplied by the manufacturer.
Fah^−/−Rag2^−/−IL2 gr^−/−NOD (FRGN) mice are generated and supplied by Dr. Markus Grompe. […]

The subject of the next experiment is hepatocytes. Briefly: Lipoprotein profile (VLDL/LDL/HDL) of hepatocyte secretion by FPLC. The class given is cell-based. To be noted: 310 nm; 4-hr collection period. The procedure:
FIGS. 13A-B (A) is a graph of the results of a FPLC showing the impact of Digoxin and Proscillaridin on the increase in the size of LDL/VLDL particles and the increase of HDL particle number in serum (FIG. 13B, enhanced).
The experiment is a simple collection of cell culture media and then uses a known assay to measure VLDL/LDL/HDL by HPLC.
Cell culture media (the serum samples of example 5) is collected and then using a known assay (see, Example 3) VLDL/LDL/HDL is measured by FPLC HPLC. The experiment was performed by Evanthia Pashos Ph.D, a post-doctoral researcher at the University of Pennsylvania. Dr. Pashos was instructed what concentration of drugs to use, how long to incubate, and to record lipoprotein profiles for HDL, LDL, VLDL. […] Hepatocyte secretion was collected and analyzed over a 4-hr collection period.

The subject of experiment [1] is FH patient-specific iPSC-derived hepatocytes. Put plainly: ApoB-100 ELISA on culture medium of FH patient-specific iPSC-derived hepatocytes ([…] screen and triplicate validation). Format: cell-based, human. To be noted: tested in triplicate; FIG. 3. In general terms: In an ELISA, binding on a coated surface is turned into a signal by an enzyme label.
Experimental: ApoB-100 secretion is measured by enzyme linked immunosorbent assay (ELISA) using an antibody that specifically detects lipidated apoB-100, which represents lipoprotein particles secreted by the iPSC-derived hepatocytes. […] FH patient-specific iPSC cells are differentiated to hepatocyte-like cells in 96-well plates and the levels of lipidated ApoB-100 are measured before and after the application of 2320 small molecules from the [sequence] collection drug library (FIGS. 2A-B).
Using the before-drug and after-drug ApoB-100 concentration for each individual well (see the Examples below; each well represents 1 drug), a post:pre drug ratio of ApoB-100 is generated (referred to as delta-apoB-100; FIGS. 2A and 2B) and primary hits are identified by z-score analysis (FIG. 2B) as described by Zhang (Zhang, X. D., J Biomol Screen 16, 775-785 (2011)). A z-score is calculated for each compound, representing a multiple of the standard deviation of all the compounds included in the parent plate (30 plates total—FIG. 2A). […]
Pre-drug and post-drug apoB-100 concentrations are determined for each compound in the [sequence] library using a standard curve and four-parameter logistic (4PL) regression model. […] Primary hits are validated in secondary replicate experiments (n=3), and statistical significance is determined by a Student's t-test. […]
The target in the next experiment is Na+/K+-ATPase α2 subunit (Rattus norvegicus, UniProt P06686). To be noted: Kolansky et al. 1992; cited from earlier work.
In another experiment the target is Na+/K+-ATPase α3 subunit (Rattus norvegicus, UniProt P06687). To be noted: Kolansky et al. 1992; cited from earlier work.

For `CC1O[C@@H](O[C@H]2C(O)C[C@H](O[C@H]3C(O)C[C@H](OC4CC[C@@]5(C)[C@H](CC[C@@H]6[C@@H]5C[C@@H](O)[C@]5(C)[C@@H](C7=CC(=O)OC7)CC[C@]65O)C4)OC3C)OC2C)CC(O)[C@@H]1O` (stereo partly drawn) [Digoxin], the “serum human ApoB-100 levels” value with human ApoB-100 is given as “significantly reduces serum ApoB-100 levels”. In the experiment with hepatocytes, the HDL secretion entry was “increase HDL secretion”, the VLD/LDL particle size result was “increase VLD/LDL particle size” and the VLD/LDL total quantity entry is recorded as “reduce VLD/LDL total quantity”.
For `C[C@@H]1O[C@@H](O[C@H]2C[C@@H](O)[C@]3(CO)[C@H]4[C@H](O)C[C@]5(C)[C@@H](C6=CC(=O)OC6)CC[C@]5(O)[C@@H]4CC[C@]3(O)C2)[C@H](O)[C@H](O)[C@H]1O` [Ouabain, Ouabain (Strophanthin)], the “Reductions of ApoB-100 levels, of DMSO controls” value in experiment [1] is on record as 71%. Further, the ouabain sensitivity result on Na+/K+-ATPase α2 subunit is “approximately 40 nM”; at Na+/K+-ATPase α3 subunit, roughly 80 nM.
For the molecule `C[C@@H]1OC(O[C@@H]2C=C3CC[C@@H]4[C@H](CC[C@]5(C)[C@@H](c6ccc(=O)oc6)CC[C@]45O)[C@@]3(C)CC2)[C@H](O)C(O)C1O` (stereo partly drawn) [Proscillaridin], the “serum human ApoB-100 levels” value with human ApoB-100 was “significantly reduces serum ApoB-100 levels”. Further, in the experiment with hepatocytes, the HDL secretion result was “increase HDL secretion”, the VLD/LDL particle size result was “increase VLD/LDL particle size” and the VLD/LDL total quantity result is “reduce VLD/LDL total quantity”.
Gitoxin: the “Reductions of ApoB-100 levels, of DMSO controls” value in experiment [1] is reported as 27%.
